Experimental data reported in ChEMBL document CHEMBL1201862, “PubChem BioAssay data set” (2004).
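Values below derive from 48-hour exposures of cells grown in 96-well plates, with endpoints linearly interpolated between the two concentrations bracketing the appropriate inhibition level. GI50: concentration for 50% inhibition of growth.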 The source made the active and inactive calls. Cut-off read from the data, not from the text of the source: active = GI50 up to about 1.1 µM and inactive = higher.

How the values were obtained:
Experiment in all cases: growth of human tumour cells (NCI), 48 h
[1] = test system: UACC-257
[2] = test system: SF-295
[3] = test system: U-251
[4] = test system: HT-29
[5] = test system: Hs-578T
[6] = test system: NCI-H522
[7] = test system: SK-MEL-2
[8] = test system: SNB-19
[9] = test system: HCC 2998
[10] = test system: Malme-3M
[11] = test system: OVCAR-5
[12] = test system: IGROV-1
[13] = test system: MDA-MB-231
[14] = test system: CCRF-CEM
[15] = test system: 786-0
[16] = test system: MCF7
[17] = test system: OVCAR-3
[18] = test system: PC-3
[19] = test system: A549
[20] = test system: DU-145

Row | SMILES | GI50 [1] | GI50 [2] | GI50 [3] | GI50 [4] | GI50 [5] | GI50 [6] | GI50 [7] | GI50 [8] | GI50 [9] | GI50 [10] | GI50 [11] | GI50 [12] | GI50 [13] | GI50 [14] | GI50 [15] | GI50 [16] | GI50 [17] | GI50 [18] | GI50 [19] | GI50 [20]
1 | CN1CC(c2ccccc2)=CC2=C1C=CC(=N)/C2=N\N | > 100 µM (inactive) | 75.3 µM (inactive) | > 100 µM (inactive) | > 100 µM (inactive) | 35.3 µM (inactive) | > 100 µM (inactive) | 48.2 µM (inactive) | 86.9 µM (inactive) | > 100 µM (inactive) | 42.3 µM (inactive) | > 100 µM (inactive) | > 100 µM (inactive) | > 100 µM (inactive) | > 100 µM (inactive) | > 100 µM (inactive) | > 100 µM (inactive) | > 100 µM (inactive) | > 100 µM (inactive) | > 100 µM (inactive) | 
2 | O=C(O)CCCOc1cc(-c2ccccc2F)nc2cc3c(cc12)OCO3 |  |  | 5.46 µM (inactive) | 4.54 µM (inactive) |  |  | 4.99 µM (inactive) |  | 46.1 µM (inactive) | 7.38 µM (inactive) | 8.32 µM (inactive) | 2.58 µM (inactive) | 31.3 µM (inactive) | 3.27 µM (inactive) | 6.38 µM (inactive) | 5.35 µM (inactive) |  | 3 µM (inactive) | 5.77 µM (inactive) | 5.75 µM (inactive)
3 | COC(=O)/C=C(\S/C=C(/c1ccccc1)N1CCn2c(C(=O)c3ccccc3)c(C(=O)OC)c(C(=O)OC)c21)C(=O)OC | 3.07 µM (inactive) | > 10 µM (inactive) | 3.93 µM (inactive) | 2.77 µM (inactive) | > 10 µM (inactive) | 0.434 µM (active) | > 10 µM (inactive) | > 10 µM (inactive) | > 10 µM (inactive) | 2.2 µM (inactive) | 9.95 µM (inactive) | > 10 µM (inactive) | 2.69 µM (inactive) | 0.733 µM (active) | 1.66 µM (inactive) | 1.42 µM (inactive) | 1.51 µM (inactive) | 6.25 µM (inactive) | > 10 µM (inactive) | 
4 | COc1ccc2c(c1)NC1(CCN(CCCC(=O)c3ccc(F)cc3)CC1)N=N2 | 17.6 µM (inactive) | 19.6 µM (inactive) | 19.2 µM (inactive) | 24.6 µM (inactive) |  | 16.9 µM (inactive) | 17.9 µM (inactive) | 35.3 µM (inactive) | 14.8 µM (inactive) | 15.2 µM (inactive) | 23.5 µM (inactive) | 21 µM (inactive) | 22.5 µM (inactive) | 20 µM (inactive) | 19.3 µM (inactive) | 17.4 µM (inactive) | 23.3 µM (inactive) | 23.1 µM (inactive) | 36.4 µM (inactive) | 18.5 µM (inactive)
5 | N=c1nc(N)nc(N)n1-c1ccc(S(N)(=O)=O)cc1 | > 100 µM (inactive) | > 100 µM (inactive) | > 100 µM (inactive) | > 100 µM (inactive) |  | > 100 µM (inactive) | > 100 µM (inactive) | > 100 µM (inactive) |  | > 100 µM (inactive) | > 100 µM (inactive) | > 100 µM (inactive) | > 100 µM (inactive) | > 100 µM (inactive) | > 100 µM (inactive) |  | > 100 µM (inactive) | > 100 µM (inactive) | > 100 µM (inactive) | > 100 µM (inactive)
6 | CCSC1=N/C(=C\c2ccccc2O)C(Nc2ccc(C)cc2)=N1 | 99.1 µM (inactive) | 34.4 µM (inactive) | 41.9 µM (inactive) | > 100 µM (inactive) | 56.1 µM (inactive) | 20.4 µM (inactive) | 19.6 µM (inactive) | 45.8 µM (inactive) |  | 33.3 µM (inactive) | > 100 µM (inactive) | 32.8 µM (inactive) | > 100 µM (inactive) | 31 µM (inactive) | 91.6 µM (inactive) |  | 22.4 µM (inactive) | 25.9 µM (inactive) | 47.4 µM (inactive) | 90.2 µM (inactive)
7 | Cc1ccc2c(c1)CC1(C2=O)[C@H](c2ccccc2)C2C(=O)c3ccc(C)cc3C2[C@H]1c1ccccc1 (stereo partly drawn) | > 100 µM (inactive) | > 100 µM (inactive) | > 100 µM (inactive) | > 100 µM (inactive) |  | > 100 µM (inactive) |  | > 100 µM (inactive) | 43 µM (inactive) | > 100 µM (inactive) | > 100 µM (inactive) | > 100 µM (inactive) | > 100 µM (inactive) | > 100 µM (inactive) | > 100 µM (inactive) | 69.8 µM (inactive) | > 100 µM (inactive) | 37.8 µM (inactive) | > 100 µM (inactive) | > 100 µM (inactive)
8 | COC(=O)/C=C(\C)CC(O)/C=C(\C)CCC=C(C)C (stereo not drawn) | 47.4 µM (inactive) | 38.1 µM (inactive) | 42.7 µM (inactive) | 24.1 µM (inactive) | 80 µM (inactive) |  | 19.1 µM (inactive) | > 100 µM (inactive) | 27.9 µM (inactive) | 39.6 µM (inactive) | > 100 µM (inactive) | > 100 µM (inactive) | > 100 µM (inactive) | 30.8 µM (inactive) | 80.5 µM (inactive) | 31.4 µM (inactive) | 22.7 µM (inactive) | 29.8 µM (inactive) | 34.3 µM (inactive) | 
9 | Cc1cccc(NC2=NCCO2)c1Cl | > 100 µM (inactive) | > 100 µM (inactive) | > 100 µM (inactive) | > 100 µM (inactive) | > 100 µM (inactive) |  |  | > 100 µM (inactive) | > 100 µM (inactive) | > 100 µM (inactive) | > 100 µM (inactive) | > 100 µM (inactive) | > 100 µM (inactive) | > 100 µM (inactive) | > 100 µM (inactive) | > 100 µM (inactive) |  |  | > 100 µM (inactive) | > 100 µM (inactive)
10 | COc1cc(Oc2nc3cc(F)c(F)cc3nc2-c2ccccc2)cc(OC)c1OC | > 100 µM (inactive) | 46.3 µM (inactive) | 40.3 µM (inactive) | 89.3 µM (inactive) | 38.7 µM (inactive) | 13.9 µM (inactive) | > 100 µM (inactive) | 34.2 µM (inactive) |  | 32 µM (inactive) | > 100 µM (inactive) | > 100 µM (inactive) |  | > 100 µM (inactive) | 30.5 µM (inactive) | 29.5 µM (inactive) | > 100 µM (inactive) | 40.3 µM (inactive) | > 100 µM (inactive) | > 100 µM (inactive)
11 | NC1CCCCC1.O=C(CP(=O)(O)O)NC(CC(=O)OCc1ccccc1)C(=O)OCc1ccccc1 (stereo not drawn) | > 100 µM (inactive) | > 100 µM (inactive) | > 100 µM (inactive) | > 100 µM (inactive) | > 100 µM (inactive) | > 100 µM (inactive) | 4.85 µM (inactive) | > 100 µM (inactive) | > 100 µM (inactive) | > 100 µM (inactive) | > 100 µM (inactive) | > 100 µM (inactive) | > 100 µM (inactive) | > 100 µM (inactive) | > 100 µM (inactive) |  | > 100 µM (inactive) | 24.2 µM (inactive) | > 100 µM (inactive) | > 100 µM (inactive)
12 | Oc1ccc2ccccc2c1CCc1c(O)ccc2ccccc12 | 13.9 µM (inactive) | 11.7 µM (inactive) | 13.3 µM (inactive) | 4.41 µM (inactive) | 16.2 µM (inactive) |  |  | 16.9 µM (inactive) | 3.81 µM (inactive) | 13.4 µM (inactive) | 14.1 µM (inactive) |  | 14.1 µM (inactive) | 11.9 µM (inactive) | 16.2 µM (inactive) | 12.7 µM (inactive) | 4.42 µM (inactive) | 13.9 µM (inactive) | 11.7 µM (inactive) | 
13 | COC(=O)C1CCCN1C(=O)C(Cc1cn(S(=O)(=O)c2ccc(C)cc2)cn1)NC(=O)OC(C)(C)C (stereo not drawn) | > 100 µM (inactive) |  | > 100 µM (inactive) | > 100 µM (inactive) | > 100 µM (inactive) |  | > 100 µM (inactive) | > 100 µM (inactive) | > 100 µM (inactive) | > 100 µM (inactive) | > 100 µM (inactive) | > 100 µM (inactive) | > 100 µM (inactive) | > 100 µM (inactive) | > 100 µM (inactive) | > 100 µM (inactive) |  | > 100 µM (inactive) | > 100 µM (inactive) | 
14 | CCCC(=O)NC(Nc1ccc(S(=O)(=O)Nc2nc(C)cc(C)n2)cc1)(C(F)(F)F)C(F)(F)F | > 100 µM (inactive) | > 100 µM (inactive) | > 100 µM (inactive) | > 100 µM (inactive) | > 100 µM (inactive) | > 100 µM (inactive) | > 100 µM (inactive) | > 100 µM (inactive) | > 100 µM (inactive) | > 100 µM (inactive) | > 100 µM (inactive) | > 100 µM (inactive) | > 100 µM (inactive) | > 100 µM (inactive) | > 100 µM (inactive) |  | > 100 µM (inactive) | > 100 µM (inactive) | > 100 µM (inactive) | > 100 µM (inactive)
15 | CC[C@]1(O)C[C@H]2CN(CCc3c([nH]c4ccccc34)[C@@](C(=O)OC)(c3cc4c(cc3OC)N(C)[C@H]3[C@@](O)(C(=O)OC)[C@H](OC(C)=O)[C@]5(CC)C=CCN6CC[C@]43[C@@H]65)C2)C1 |  | 0.000492 µM (active) | 0.000715 µM (active) | 0.000408 µM (active) |  | 0.000309 µM (active) | 0.000762 µM (active) | 0.00115 µM (active) | 0.000959 µM (active) | 0.000557 µM (active) |  | 0.00129 µM (active) | 0.000991 µM (active) | 0.000641 µM (active) | 0.000964 µM (active) | 0.00045 µM (active) | 0.00038 µM (active) | 0.000412 µM (active) | 0.00157 µM (active) | 0.000395 µM (active)
